Test results: PMC6891286, “Towards the Development of an In vivo Chemical Probe for Cyclin G Associated Kinase (GAK)” (Molecules, 2019)

Key:
Test in all cases: KINOMEscan
Type in all cases: binding
Settings in all cases: 35 at 1 µM; read-out: % inhibition
[1] = molecular target: T1, ABL1(E255K)-phosphorylated (Homo sapiens, UniProt P00519, E255K)
T1 construct: purchased Eurofins DiscoverX (KINOMEscan)
Method: (§1) KinomeScan Assay on 35 was performed as previously described at EuroFins DiscoverX (Fremont, CA, USA).

[2] = molecular target: T2, ABL1(Q252H)-nonphosphorylated (Homo sapiens, UniProt P00519, Q252H)
T2 construct: purchased Eurofins DiscoverX (KINOMEscan)
Method: as §1

[3] = molecular target: T3, ABL2 (Homo sapiens, UniProt P42684)
T3 construct: purchased Eurofins DiscoverX (KINOMEscan)
Method: as §1

[4] = molecular target: T4, ACVR1 (Homo sapiens, UniProt Q04771)
T4 construct: purchased Eurofins DiscoverX (KINOMEscan)
Method: as §1

[5] = molecular target: T5, ADCK3 (Homo sapiens, UniProt Q8NI60)
T5 construct: purchased Eurofins DiscoverX (KINOMEscan)
Method: as §1

[6] = molecular target: T6, ASK2 (Homo sapiens, UniProt O95382)
T6 construct: purchased Eurofins DiscoverX (KINOMEscan)
Method: as §1

[7] = molecular target: T7, CDK11 (Homo sapiens, UniProt Q9BWU1)
T7 construct: purchased Eurofins DiscoverX (KINOMEscan)
Method: as §1

[8] = molecular target: T8, CDKL3 (Homo sapiens, UniProt Q8IVW4)
T8 construct: purchased Eurofins DiscoverX (KINOMEscan)
Method: as §1

[9] = molecular target: T9, CSF1R-autoinhibited (Homo sapiens, UniProt P07333)
T9 construct: purchased Eurofins DiscoverX (KINOMEscan)
Method: as §1

[10] = molecular target: T10, CSNK1G2 (Homo sapiens, UniProt P78368)
T10 construct: purchased Eurofins DiscoverX (KINOMEscan)
T10 sequence (P78368 whole entry): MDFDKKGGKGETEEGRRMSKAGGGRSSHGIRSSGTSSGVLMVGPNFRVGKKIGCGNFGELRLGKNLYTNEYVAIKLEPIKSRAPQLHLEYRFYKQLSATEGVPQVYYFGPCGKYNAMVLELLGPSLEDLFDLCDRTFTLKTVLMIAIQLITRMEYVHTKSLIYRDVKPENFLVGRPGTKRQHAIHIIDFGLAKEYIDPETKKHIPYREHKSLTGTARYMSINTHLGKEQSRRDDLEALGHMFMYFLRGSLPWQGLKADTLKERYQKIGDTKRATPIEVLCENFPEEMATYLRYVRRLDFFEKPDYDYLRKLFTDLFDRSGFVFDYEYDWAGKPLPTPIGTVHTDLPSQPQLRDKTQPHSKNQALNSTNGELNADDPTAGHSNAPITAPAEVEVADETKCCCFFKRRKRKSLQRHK
Method: as §1

[11] = molecular target: T11, CTK (Homo sapiens, UniProt P42679)
T11 construct: purchased Eurofins DiscoverX (KINOMEscan)
Method: as §1

[12] = molecular target: T12, DMPK (Homo sapiens, UniProt Q09013)
T12 construct: purchased Eurofins DiscoverX (KINOMEscan)
Method: as §1

[13] = molecular target: T13, DMPK2 (Homo sapiens, UniProt Q6DT37)
T13 construct: purchased Eurofins DiscoverX (KINOMEscan)
T13 sequence (Q6DT37 whole entry): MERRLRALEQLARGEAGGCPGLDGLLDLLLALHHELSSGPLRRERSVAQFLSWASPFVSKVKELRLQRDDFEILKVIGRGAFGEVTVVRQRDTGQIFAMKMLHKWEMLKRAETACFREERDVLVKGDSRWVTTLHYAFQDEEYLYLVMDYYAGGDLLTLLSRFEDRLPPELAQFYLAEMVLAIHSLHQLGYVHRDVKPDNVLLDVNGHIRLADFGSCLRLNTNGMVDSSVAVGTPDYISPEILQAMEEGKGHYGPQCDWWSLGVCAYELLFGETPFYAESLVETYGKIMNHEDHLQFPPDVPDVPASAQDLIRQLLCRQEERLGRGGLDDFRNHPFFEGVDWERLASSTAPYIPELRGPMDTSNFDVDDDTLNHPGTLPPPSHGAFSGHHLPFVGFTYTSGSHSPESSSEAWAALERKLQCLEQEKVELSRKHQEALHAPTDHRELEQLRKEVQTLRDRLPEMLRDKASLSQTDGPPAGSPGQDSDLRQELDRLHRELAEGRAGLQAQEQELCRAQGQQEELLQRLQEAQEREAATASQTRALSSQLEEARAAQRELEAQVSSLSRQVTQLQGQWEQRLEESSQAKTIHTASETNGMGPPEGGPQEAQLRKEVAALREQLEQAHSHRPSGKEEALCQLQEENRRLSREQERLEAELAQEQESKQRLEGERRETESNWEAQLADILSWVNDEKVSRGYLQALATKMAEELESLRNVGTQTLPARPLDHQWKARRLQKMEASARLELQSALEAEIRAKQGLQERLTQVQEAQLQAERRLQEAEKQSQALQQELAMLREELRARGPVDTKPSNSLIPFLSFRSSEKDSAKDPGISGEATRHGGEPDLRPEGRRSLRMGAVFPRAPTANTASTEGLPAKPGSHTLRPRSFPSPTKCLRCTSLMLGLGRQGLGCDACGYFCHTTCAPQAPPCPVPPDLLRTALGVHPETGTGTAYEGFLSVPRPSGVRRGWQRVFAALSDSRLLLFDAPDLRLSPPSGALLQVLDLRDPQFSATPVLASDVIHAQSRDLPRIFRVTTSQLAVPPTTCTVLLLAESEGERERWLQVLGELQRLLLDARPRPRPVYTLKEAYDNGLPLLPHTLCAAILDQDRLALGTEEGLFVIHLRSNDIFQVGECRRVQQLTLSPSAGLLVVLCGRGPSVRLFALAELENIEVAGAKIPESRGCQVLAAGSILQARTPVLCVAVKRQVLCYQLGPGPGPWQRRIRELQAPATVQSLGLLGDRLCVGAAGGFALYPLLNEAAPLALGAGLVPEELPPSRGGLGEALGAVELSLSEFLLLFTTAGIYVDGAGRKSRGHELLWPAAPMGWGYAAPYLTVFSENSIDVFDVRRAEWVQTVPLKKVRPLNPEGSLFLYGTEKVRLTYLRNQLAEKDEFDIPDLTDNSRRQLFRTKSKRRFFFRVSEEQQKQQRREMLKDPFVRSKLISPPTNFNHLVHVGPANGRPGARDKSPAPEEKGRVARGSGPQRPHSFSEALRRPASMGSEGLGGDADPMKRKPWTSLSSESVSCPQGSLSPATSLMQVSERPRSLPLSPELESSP
Method: as §1

[14] = molecular target: T14, DYRK2 (Homo sapiens, UniProt Q92630)
T14 construct: purchased Eurofins DiscoverX (KINOMEscan)
Method: as §1

[15] = molecular target: T15, EGFR(G719S) (Homo sapiens, UniProt P00533, G719S)
T15 construct: purchased Eurofins DiscoverX (KINOMEscan)
Method: as §1

[16] = molecular target: T16, EGFR(L747-E749del, A750P) (Homo sapiens, UniProt P00533, A750P/DEL747-749)
T16 construct: purchased Eurofins DiscoverX (KINOMEscan)
Method: as §1

[17] = molecular target: T17, EIF2AK1 (Homo sapiens, UniProt Q9BQI3)
T17 construct: purchased Eurofins DiscoverX (KINOMEscan)
T17 sequence (Q9BQI3 whole entry): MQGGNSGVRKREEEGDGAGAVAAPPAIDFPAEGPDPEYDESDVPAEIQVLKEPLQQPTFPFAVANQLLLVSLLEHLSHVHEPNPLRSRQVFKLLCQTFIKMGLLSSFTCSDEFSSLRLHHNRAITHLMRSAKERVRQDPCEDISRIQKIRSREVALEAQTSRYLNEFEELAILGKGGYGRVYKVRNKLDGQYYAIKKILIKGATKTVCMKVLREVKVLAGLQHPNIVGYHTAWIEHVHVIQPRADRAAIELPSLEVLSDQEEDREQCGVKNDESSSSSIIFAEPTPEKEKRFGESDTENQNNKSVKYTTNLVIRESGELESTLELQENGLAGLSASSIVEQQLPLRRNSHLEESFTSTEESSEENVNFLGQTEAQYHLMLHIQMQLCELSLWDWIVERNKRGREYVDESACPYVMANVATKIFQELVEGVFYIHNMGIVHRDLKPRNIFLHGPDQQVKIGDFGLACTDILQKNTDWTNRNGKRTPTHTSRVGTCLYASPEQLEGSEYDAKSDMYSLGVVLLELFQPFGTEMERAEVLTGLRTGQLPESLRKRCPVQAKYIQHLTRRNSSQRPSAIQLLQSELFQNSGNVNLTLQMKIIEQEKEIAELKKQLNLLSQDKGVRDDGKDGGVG
Method: as §1

[18] = molecular target: T18, EPHA4 (Homo sapiens, UniProt P54764)
T18 construct: purchased Eurofins DiscoverX (KINOMEscan)
Method: as §1

[19] = molecular target: T19, EPHA8 (Homo sapiens, UniProt P29322)
T19 construct: purchased Eurofins DiscoverX (KINOMEscan)
Method: as §1

[20] = molecular target: T20, EPHB4 (Homo sapiens, UniProt P54760)
T20 construct: purchased Eurofins DiscoverX (KINOMEscan)
Method: as §1

[21] = molecular target: T21, ERK5 (Homo sapiens, UniProt Q13164)
T21 construct: purchased Eurofins DiscoverX (KINOMEscan)
Method: as §1

[22] = molecular target: T22, FES (Homo sapiens, UniProt P07332)
T22 construct: purchased Eurofins DiscoverX (KINOMEscan)
Method: as §1

[23] = molecular target: T23, FGFR3(G697C) (Homo sapiens, UniProt P22607, G697C)
T23 construct: purchased Eurofins DiscoverX (KINOMEscan)
Method: as §1

[24] = molecular target: T24, HPK1 (Homo sapiens, UniProt Q92918)
T24 construct: purchased Eurofins DiscoverX (KINOMEscan)
Method: as §1

[25] = molecular target: T25, JNK1 (Homo sapiens, UniProt P45983)
T25 construct: purchased Eurofins DiscoverX (KINOMEscan)
Method: as §1

[26] = molecular target: T26, MRCKB (Homo sapiens, UniProt Q9Y5S2)
T26 construct: purchased Eurofins DiscoverX (KINOMEscan)
Method: as §1

[27] = molecular target: T27, MST4 (Homo sapiens, UniProt Q9P289)
T27 construct: purchased Eurofins DiscoverX (KINOMEscan)
Method: as §1

[28] = molecular target: T28, NEK5 (Homo sapiens, UniProt Q6P3R8)
T28 construct: purchased Eurofins DiscoverX (KINOMEscan)
Method: as §1

[29] = molecular target: T29, NEK7 (Homo sapiens, UniProt Q8TDX7)
T29 construct: purchased Eurofins DiscoverX (KINOMEscan)
Method: as §1

[30] = molecular target: T30, NIK (Homo sapiens, UniProt Q99558)
T30 construct: purchased Eurofins DiscoverX (KINOMEscan)
Method: as §1

[31] = molecular target: T31, PCTK2 (Homo sapiens, UniProt Q00537)
T31 construct: purchased Eurofins DiscoverX (KINOMEscan)
T31 sequence (Q00537 whole entry): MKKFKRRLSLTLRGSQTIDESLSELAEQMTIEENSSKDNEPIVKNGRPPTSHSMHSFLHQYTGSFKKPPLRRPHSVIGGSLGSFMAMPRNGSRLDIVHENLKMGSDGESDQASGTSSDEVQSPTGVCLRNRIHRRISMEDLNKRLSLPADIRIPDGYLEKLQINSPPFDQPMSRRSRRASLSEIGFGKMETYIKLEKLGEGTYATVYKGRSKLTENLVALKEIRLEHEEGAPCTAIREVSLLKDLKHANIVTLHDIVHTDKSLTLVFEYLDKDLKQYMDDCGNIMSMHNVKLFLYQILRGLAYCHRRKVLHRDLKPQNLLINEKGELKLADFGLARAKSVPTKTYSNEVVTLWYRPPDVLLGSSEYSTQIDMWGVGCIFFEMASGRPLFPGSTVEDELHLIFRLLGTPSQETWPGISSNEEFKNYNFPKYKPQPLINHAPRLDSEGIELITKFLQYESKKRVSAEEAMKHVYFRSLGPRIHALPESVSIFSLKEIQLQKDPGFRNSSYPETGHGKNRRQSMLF
Method: as §1

[32] = molecular target: T32, PFPK5(P.falciparum) (Plasmodium falciparum, UniProt P61075)
T32 construct: purchased Eurofins DiscoverX (KINOMEscan)
T32 sequence (P61075 whole entry): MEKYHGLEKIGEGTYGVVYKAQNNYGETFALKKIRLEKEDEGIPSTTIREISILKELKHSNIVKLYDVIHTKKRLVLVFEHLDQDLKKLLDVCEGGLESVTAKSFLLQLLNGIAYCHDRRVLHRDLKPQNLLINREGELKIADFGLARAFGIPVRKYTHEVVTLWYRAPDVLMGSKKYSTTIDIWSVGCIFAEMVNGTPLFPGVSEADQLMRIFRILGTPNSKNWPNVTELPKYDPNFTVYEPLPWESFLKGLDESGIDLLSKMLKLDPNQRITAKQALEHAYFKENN
Method: as §1

[33] = molecular target: T33, PLK2 (Homo sapiens, UniProt Q9NYY3)
T33 construct: purchased Eurofins DiscoverX (KINOMEscan)
Method: as §1

[34] = molecular target: T34, PYK2 (Homo sapiens, UniProt Q14289)
T34 construct: purchased Eurofins DiscoverX (KINOMEscan)
Method: as §1

[35] = molecular target: T35, RIPK4 (Homo sapiens, UniProt P57078)
T35 construct: purchased Eurofins DiscoverX (KINOMEscan)
Method: as §1

[36] = molecular target: T36, RSK2(Kin.Dom.2-C-terminal) (Homo sapiens, UniProt P51812)
T36 construct: RSK2(Kin.Dom.2-C-terminal); purchased Eurofins DiscoverX (KINOMEscan)
Method: as §1

[37] = molecular target: T37, SLK (Homo sapiens, UniProt Q9H2G2)
T37 construct: purchased Eurofins DiscoverX (KINOMEscan)
Method: as §1

[38] = molecular target: T38, TAOK3 (Homo sapiens, UniProt Q9H2K8)
T38 construct: purchased Eurofins DiscoverX (KINOMEscan)
T38 sequence (Q9H2K8 whole entry): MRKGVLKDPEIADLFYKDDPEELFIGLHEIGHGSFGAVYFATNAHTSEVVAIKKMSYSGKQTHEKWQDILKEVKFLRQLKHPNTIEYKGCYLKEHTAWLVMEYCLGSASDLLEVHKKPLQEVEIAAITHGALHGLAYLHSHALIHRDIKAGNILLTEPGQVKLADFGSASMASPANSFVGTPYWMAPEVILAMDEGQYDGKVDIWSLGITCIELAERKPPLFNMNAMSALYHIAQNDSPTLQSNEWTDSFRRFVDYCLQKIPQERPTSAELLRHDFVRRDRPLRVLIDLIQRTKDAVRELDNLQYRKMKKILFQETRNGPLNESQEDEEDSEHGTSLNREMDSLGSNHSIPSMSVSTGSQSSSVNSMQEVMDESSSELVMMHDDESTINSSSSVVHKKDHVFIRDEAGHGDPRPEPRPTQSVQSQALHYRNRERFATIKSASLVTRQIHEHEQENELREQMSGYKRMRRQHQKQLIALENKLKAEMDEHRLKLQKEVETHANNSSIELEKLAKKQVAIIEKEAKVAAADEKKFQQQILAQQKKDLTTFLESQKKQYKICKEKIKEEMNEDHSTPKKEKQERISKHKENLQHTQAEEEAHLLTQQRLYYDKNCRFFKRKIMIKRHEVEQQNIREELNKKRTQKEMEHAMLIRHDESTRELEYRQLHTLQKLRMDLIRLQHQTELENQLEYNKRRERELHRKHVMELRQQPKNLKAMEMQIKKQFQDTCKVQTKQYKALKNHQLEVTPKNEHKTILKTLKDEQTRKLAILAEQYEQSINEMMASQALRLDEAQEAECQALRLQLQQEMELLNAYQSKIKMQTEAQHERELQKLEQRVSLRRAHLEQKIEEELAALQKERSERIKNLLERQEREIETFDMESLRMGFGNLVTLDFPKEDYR
Method: as §1

[39] = molecular target: T39, TGFBR1 (Homo sapiens, UniProt P36897)
T39 construct: purchased Eurofins DiscoverX (KINOMEscan)
T39 sequence (P36897 34-503): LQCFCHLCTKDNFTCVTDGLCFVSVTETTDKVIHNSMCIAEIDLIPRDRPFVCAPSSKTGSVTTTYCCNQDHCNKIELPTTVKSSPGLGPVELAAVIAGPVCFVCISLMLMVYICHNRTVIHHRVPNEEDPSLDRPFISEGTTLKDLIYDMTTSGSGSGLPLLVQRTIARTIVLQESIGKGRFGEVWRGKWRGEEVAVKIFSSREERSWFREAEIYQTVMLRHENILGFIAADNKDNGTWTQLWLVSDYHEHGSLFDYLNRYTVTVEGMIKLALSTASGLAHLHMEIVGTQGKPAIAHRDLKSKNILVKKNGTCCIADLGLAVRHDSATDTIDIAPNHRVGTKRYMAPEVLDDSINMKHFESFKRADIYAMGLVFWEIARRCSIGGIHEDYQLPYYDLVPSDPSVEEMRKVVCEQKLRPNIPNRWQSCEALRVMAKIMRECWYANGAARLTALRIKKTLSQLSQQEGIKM
Method: as §1

[40] = molecular target: T40, TNK1 (Homo sapiens, UniProt Q13470)
T40 construct: purchased Eurofins DiscoverX (KINOMEscan)
Method: as §1

[41] = molecular target: T41, TNK2 (Homo sapiens, UniProt Q07912)
T41 construct: purchased Eurofins DiscoverX (KINOMEscan)
Method: as §1

[42] = molecular target: T42, TTK (Homo sapiens, UniProt P33981)
T42 construct: purchased Eurofins DiscoverX (KINOMEscan)
Method: as §1

[43] = molecular target: T43, TXK (Homo sapiens, UniProt P42681)
T43 construct: purchased Eurofins DiscoverX (KINOMEscan)
Method: as §1

**Q.** For Brc1ccc2nccc(Nc3ccc4cn[nH]c4c3)c2c1 [Compound 35, 6-Bromo-N-(1H-indazol-6-yl)quinolin-4-amine], which activity at 1 µM [1] is on record?
**A.** 44%

**Q.** What about the activity at 1 µM [2] of the same molecule?
**A.** 58%

**Q.** What about the activity at 1 µM [3] of the same molecule?
**A.** 88%

**Q.** And the activity at 1 µM [4]?
**A.** 97%

**Q.** And the activity at 1 µM [5]?
**A.** 100%

**Q.** And the activity at 1 µM [6]?
**A.** 100%

**Q.** And the activity at 1 µM [7]?
**A.** 80%

**Q.** And the activity at 1 µM [8]?
**A.** 100%

**Q.** And the activity at 1 µM [9]?
**A.** 100%

**Q.** And the activity at 1 µM [10]?
**A.** 100%

**Q.** And the activity at 1 µM [11]?
**A.** 93%

**Q.** And the activity at 1 µM [12]?
**A.** 100%

**Q.** And the activity at 1 µM [13]?
**A.** 73%

**Q.** What about the activity at 1 µM [14] of the same molecule?
**A.** 100%

**Q.** What about the activity at 1 µM [15] of the same molecule?
**A.** 97%

**Q.** What about the activity at 1 µM [16] of the same molecule?
**A.** 81%

**Q.** What about the activity at 1 µM [17] of the same molecule?
**A.** 92%

**Q.** And the activity at 1 µM [18]?
**A.** 100%

**Q.** What about the activity at 1 µM [19] of the same molecule?
**A.** 100%

**Q.** What about the activity at 1 µM [20] of the same molecule?
**A.** 100%

**Q.** What about the activity at 1 µM [21] of the same molecule?
**A.** 100%

**Q.** What about the activity at 1 µM [22] of the same molecule?
**A.** 100%

**Q.** What about the activity at 1 µM [23] of the same molecule?
**A.** 100%

**Q.** What about the activity at 1 µM [24] of the same molecule?
**A.** 100%

**Q.** What about the activity at 1 µM [25] of the same molecule?
**A.** 83%

**Q.** What about the activity at 1 µM [26] of the same molecule?
**A.** 100%

**Q.** What about the activity at 1 µM [27] of the same molecule?
**A.** 100%

**Q.** And the activity at 1 µM [28]?
**A.** 93%

**Q.** What about the activity at 1 µM [29] of the same molecule?
**A.** 92%

**Q.** And the activity at 1 µM [30]?
**A.** 100%

**Q.** And the activity at 1 µM [31]?
**A.** 100%

**Q.** And the activity at 1 µM [32]?
**A.** 100%

**Q.** What about the activity at 1 µM [33] of the same molecule?
**A.** 100%

**Q.** What about the activity at 1 µM [34] of the same molecule?
**A.** 100%

**Q.** What about the activity at 1 µM [35] of the same molecule?
**A.** 100%

**Q.** What about the activity at 1 µM [36] of the same molecule?
**A.** 100%

**Q.** What about the activity at 1 µM [37] of the same molecule?
**A.** 100%

**Q.** What about the activity at 1 µM [38] of the same molecule?
**A.** 97%

**Q.** And the activity at 1 µM [39]?
**A.** 100%

**Q.** What about the activity at 1 µM [40] of the same molecule?
**A.** 69%

**Q.** What about the activity at 1 µM [41] of the same molecule?
**A.** 95%

**Q.** What about the activity at 1 µM [42] of the same molecule?
**A.** 100%

**Q.** And the activity at 1 µM [43]?
**A.** 100%
